Values of other authors as cited in patent US20170332633A1, “DOUBLE SALT IONIC LIQUIDS OF HERBICIDES” (THE BOARD OF TRUSTEES OF THE UNIVERSITY OF ALABAMA, priority 2014, published 2017).

Tested on: rat

SMILES	rat LD50 [mg/kg]
COc1c(Cl)ccc(Cl)c1C(=O)O [Dicamba, 3,6-dichloro-2-methoxy benzoic acid]	1039
O=C(O)COc1ccc(Cl)cc1Cl [Example 2.4-D, 2,4-dichlorophenoxyacetic acid]	639 to 764
